Test results from patent publication US20190166843A1, “Pesticidal Active Mixtures Comprising Isoxazoline Compounds I” (BASF SE, priority 2008, published 2019).

Experiments:
[1] = tested on: Boll Weevil (Anthonomus grandis); assay: Test B.2 Control of boll weevil, insect diet with eggs, 24-well plates; format: in vivo; conditions: 5 days
Text: (§1) Synergism can be described as an interaction where the combined effect of two or more compounds is greater than the sum of the individual effects of each of the compounds. The presence of a synergistic effect in terms of percent control, between two mixing partners (X and Y) can be calculated using the Colby equation (Colby, S. R., 1967, Calculating Synergistic and Antagonistic Responses in Herbicide Combinations, Weeds, 15, 20-22):
(§2) When the observed combined control effect is greater than the expected combined control effect (E), then the combined effect is synergistic.
For evaluating control of boll weevil (Anthonomus grandis) the test unit consisted of 24-well-microtiter plates containing an insect diet and 20-30 A. grandis eggs. The compounds or mixtures were formulated using a solution containing 75 wt % water and 25 wt % DMSO. Different concentrations of formulated compounds or mixtures were sprayed onto the insect diet at 20 μl, using a custom built micro atomizer, at two replications.
For experimental mixtures in these tests identical volumes of both mixing partners at the desired concentrations respectively, were mixed together.
After application, microtiter plates were incubated at 23±1° C., 50±5% RH for 5 days. Egg and larval mortality was then visually assessed.

[2] = tested on: Green Peach Aphid (Myzus persicae); assay: Test B.1 Control of green peach aphid through systemic means, artificial diet under membrane, 96-well plates; format: in vivo; conditions: 3 days
Text: as §1, §2
For evaluating control of green peach aphid (Myzus persicae) through systemic means the test unit consisted of 96-well-microtiter plates containing liquid artificial diet under an artificial membrane.
The compounds or mixtures were formulated using a solution containing 75 wt % water and 25 wt % DMSO. Different concentrations of formulated compounds or mixtures were pipetted into the aphid diet, using a custom built pipetter, at two replications. For experimental mixtures in these tests identical volumes of both mixing partners at the desired concentrations respectively, were mixed together.
After application, 5-8 adult aphids were placed on the artificial membrane inside the microtiter plate wells. The aphids were then allowed to suck on the treated aphid diet and incubated at 23±1° C., 50+5% RH for 3 days. Aphid mortality and fecundity was then visually assessed.

[3] = C.I.240 alone at 0.08 ppm (0 + 0.08)
[4] = compound II alone at 0.4 ppm (0.4 + 0)

Compound: CC1(C)C(C=C(Cl)Cl)C1C(=O)OC(C#N)c1cccc(Oc2ccccc2)c1 (stereo not drawn) [Alpha-Cypermethrin, alpha-cypermethrin]
- Average Control % ([1]; compound II alone at 0.08 ppm (0.08 + 0)): 0%

Compound: Cc1cc(C2=NOC(c3cc(Cl)cc(Cl)c3)(C(F)(F)F)C2)ccc1C(=O)NCC(=O)NCC(F)(F)F (stereo not drawn) [C.I.240]
- Average Control % [1, 3]: 0%
- Average Control % ([1]; C.I.240 alone at 0.4 ppm (0 + 0.4)): 50%
- Average Control % [2, 3]: 0%
- Average Control % ([2]; C.I.240 alone at 2 ppm (0 + 2)): 0%

Compound: N#CCNC(=O)c1cnccc1C(F)(F)F [Flonicamid, flonicamid]
- Average Control % ([1]; compound II alone at 4 ppm (4 + 0)): 0%

Compound: O=[N+]([O-])NC1=NCCN1Cc1ccc(Cl)nc1 [Imidacloprid, imidacloprid]
- Average Control % [2, 4]: 0%

Compound: CN1COCN(Cc2cnc(Cl)s2)/C1=N\[N+](=O)[O-] [Thiamethoxam, thiamethoxam]
- Average Control % [2, 4]: 25%

Compound: abamectin
- Average Control % ([1]; compound II alone at 0.016 ppm (0.016 + 0)): 50%
